Here are results for four compounds from patent US8080580B2, “Dioxa-bicyclo[3.2.1]octane-2,3,4-triol derivatives” (Pfizer Inc., priority 2008, dated 2011).

A short description of data set [1]: Pharmacokinetic testing in rats (IV or PO). The class given is in vivo. The conditions noted are these: rat. How it is done: Examples 1A, 2A, 4A, 12A, and 14A were tested in rats to assess pharmacokinetic parameters including maximum concentration (Cmax), area under the plasma concentration time curve (AUC), clearance (CL), steady state volume of distribution (Vss), half life (t1/2), and bioavailability (F). Male Sprague Dawley rats (˜300 g) were used. Rats received compound by intravenous (IV) or oral gavage (PO) administration and the doses tested including vehicle to formulate dosing solutions are listed in Table 5.
Following IV or PO administration, 0.2 mL blood was sampled from the jugular vein at various timepoints (Table 5). Twenty microL aliquots of plasma samples and standards were subjected to protein precipitation with acetonitrile containing an internal standard. Samples were vortexed and centrifuged to obtain supernatant which was analyzed by LC-MS/MS. Analyst (Version 1.4.1) was used to measure peak areas and peak area ratios of analyte to internal standard were calculated. LC-MS/MS conditions are as follows: Mass Spectrometer+Source Type was Sciex API 4000−Turbo Spray; HPLC pump was Shimadzu; Autosampler was CTC PAL Autosampler; Injection volume was 3.0 to 10 microL; A gradient was used with mobile phase A: 10 mM ammonium acetate and 1% Isopropyl alcohol in water; B: Acetonitrile; Flowrate 0.300 mL per minute (Column 2.0×30 mm 5 microm LUNA C18 column (phenomenex)). Detection mode was negative.
A calibration curve was constructed from the peak area ratios of the standards to the internal standard by applying a weighted linear (1/x or 1/x2) regression. The dynamic range of the standard curve was 5.00 ng/mL to 5000 ng/mL.
Pharmacokinetic parameters were determined from individual animal data using non-compartmental analysis in Watson (version 7.2). Concentrations below the limit of quantitation (BLQ) were recorded as 0 ng/mL for use in calculations.
The following calculations were used: AUC(0−τ)=Determined using the linear trapezoidal method AUC(0−□)=AUC(0−τ) plus extrapolated area determined by dividing plasma concentration at τ by the slope of the terminal log-linear phase CL=Dose/AUC(0−∞) Vdss=CL×MRT Cmax=Recorded directly from plasma concentration time curve Tmax=Recorded directly from plasma concentration time curve t½=ln(0.5)/slope of the terminal log-linear phase F %=AUC(0−∞)PO per dose/AUC(0−∞)IV per dose C(0)=Extrapolated by linear regression from the apparent distribution phase following IV administration MRT=AUMC(AUC(0−∞)/AUC(0−∞)

Another data set concerns the target T1, human SGLT2 (Homo sapiens, UniProt P31639).
T1 construct: expressed in transfected cells; host or cells: CHO-FlpIn (Invitrogen)
T1 sequence (P31639 1-672): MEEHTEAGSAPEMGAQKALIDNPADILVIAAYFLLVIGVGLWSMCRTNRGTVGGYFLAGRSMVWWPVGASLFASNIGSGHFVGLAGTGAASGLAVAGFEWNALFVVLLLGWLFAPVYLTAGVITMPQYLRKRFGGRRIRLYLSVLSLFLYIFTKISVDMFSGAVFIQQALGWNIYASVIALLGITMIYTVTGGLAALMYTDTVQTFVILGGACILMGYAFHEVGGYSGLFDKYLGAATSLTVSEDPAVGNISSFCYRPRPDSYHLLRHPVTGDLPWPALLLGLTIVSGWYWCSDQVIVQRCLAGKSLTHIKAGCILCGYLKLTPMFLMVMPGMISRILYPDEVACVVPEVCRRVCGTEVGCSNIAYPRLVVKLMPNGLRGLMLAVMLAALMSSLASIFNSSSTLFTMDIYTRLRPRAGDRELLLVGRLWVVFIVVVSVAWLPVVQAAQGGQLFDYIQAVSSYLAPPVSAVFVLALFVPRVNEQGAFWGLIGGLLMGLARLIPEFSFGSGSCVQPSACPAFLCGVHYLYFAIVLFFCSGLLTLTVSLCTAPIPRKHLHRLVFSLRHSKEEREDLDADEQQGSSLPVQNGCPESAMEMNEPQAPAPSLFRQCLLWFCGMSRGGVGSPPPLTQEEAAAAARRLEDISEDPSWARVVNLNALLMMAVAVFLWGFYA
The data set is described as follows: SGLT2 functional assay: inhibition of AMG uptake in CHO-FlpIn cells stably expressing human SGLT2. The format is cell-based. Conditions: individual runs (Run No.), read-out: hSGLT2 IC50. An excerpt: The SGLT2 functional assay was designed to detect the inhibition of methyl-alpha-D glucopyranoside (AMG—a non-metabolizable form of glucose) uptake via the SGLT2 transporter. The SGLT2 transporter recovers glucose from the proximal tubules of the kidney; its inhibition results in sugar wasted in the urine. The positive control compound, Phlorizin, is a known inhibitor of glucose uptake for SGLT2 and was used for comparing the high percent effect of SGLT2 inhibition of the test compounds.
CHO-FlpIn (Invitrogen, Carlsbad, Calif.) cells stably expressing human SGLT2 (pcDNA5/FRT) were plated in Iso-TC 96 well plates (Perkin Elmer, Waltham, Mass.) at a density of 100,000 cells/well in 100 microL of growth media (1:1 F-12/DMEM media (Gibco, Carlsbad, Calif.), 10% FBS (Sigma, St. Louis Mo.), 1× Pen/Strep (Gibco, Carlsbad, Calif.), 600 microg/mL Hygromycin (Invitrogen, Carlsbad, Calif.)). Prior to treating with test compound, confluent cells were serum starved for 2 hours at 37° C. in 1:1 F-12/DMEM media, replacing with fresh F-12/DMEM media after 1 hour. […] Cell plates were then incubated for 3 hours at 37° C. for AMG uptake.

For a further data set, the target named is T2, hSGLT1 (Homo sapiens, UniProt P13866).
T2 sequence (P13866 1-664): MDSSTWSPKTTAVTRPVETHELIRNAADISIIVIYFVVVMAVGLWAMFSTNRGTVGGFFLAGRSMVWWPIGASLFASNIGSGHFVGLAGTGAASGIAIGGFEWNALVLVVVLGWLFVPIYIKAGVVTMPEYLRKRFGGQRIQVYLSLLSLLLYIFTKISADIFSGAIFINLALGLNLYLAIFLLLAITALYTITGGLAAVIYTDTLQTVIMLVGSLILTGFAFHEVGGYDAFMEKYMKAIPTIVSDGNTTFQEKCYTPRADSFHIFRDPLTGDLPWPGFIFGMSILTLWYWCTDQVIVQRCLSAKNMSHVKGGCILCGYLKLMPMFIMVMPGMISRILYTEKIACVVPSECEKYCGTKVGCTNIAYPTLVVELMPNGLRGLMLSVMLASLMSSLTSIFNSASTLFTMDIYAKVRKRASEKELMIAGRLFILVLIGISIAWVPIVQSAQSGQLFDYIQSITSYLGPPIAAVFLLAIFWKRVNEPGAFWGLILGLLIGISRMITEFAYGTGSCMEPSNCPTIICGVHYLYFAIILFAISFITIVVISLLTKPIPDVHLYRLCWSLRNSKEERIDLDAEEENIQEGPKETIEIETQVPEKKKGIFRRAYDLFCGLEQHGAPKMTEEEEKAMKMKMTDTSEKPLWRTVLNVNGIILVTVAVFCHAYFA
The experiment in a line: SGLT1 functional assay: hSGLT1 IC50 (selectivity counter-screen to the SGLT2 AMG uptake assay). The format is cell-based. Conditions: individual runs (Run No.). For orientation: The purpose of a counterscreen is to sort out artefacts and off-target activity.

Setting [2] is: male, Sprague Dawley, plasma, IV, 2 mg/kg.
Setting [3] is: male, Sprague Dawley, plasma, PO, 10 mg/kg, PEG200/0.5% MC.

Molecules are shown by their SMILES. pIC50: −log10 of the molar value. Values joined by “and” are separate entries in the source; they are usually repeats but may differ in a detail not shown here. Identical values can stand only once.

The AUC(0-inf) is the area under the concentration-time curve extrapolated to infinity. Read a high AUC(0-inf) as more exposure. The term pIC50 denotes the negative decadic logarithm of the IC50, by convention in mol/L. Usually half-life stands for how long it takes for the measured level to halve. High values mean slow loss, low ones fast loss. For orientation: Cmax means the highest concentration seen after dosing.

In data set [1] (setting [2]), `CCOc1ccc(Cc2cc([C@]34OC[C@](CO)(O3)[C@@H](O)[C@H](O)[C@H]4O)ccc2C)cc1` [Example 2A, (1S,2S,3S,4R,5S)-5-[3-(4-ethoxy-benzyl)-4-methyl-phenyl]-1-hydroxymethyl-6,8-dioxa-bicyclo[3.2.1]octane-2,3,4-triol] displayed an AUC(0-inf) of 1.34 µg·h/mL. Moreover, in data set [1] (IV, 2 mg/kg), the CL came to 1.66 L/h/kg, the Vss was found to be 1.03 L/kg and the t1/2 turned out to be 0.94 h. The pIC50 on human SGLT2 is 9.08 and 8.82 and 9.03 and 9.13 and 8.80 and 8.98. For the same compound, the pIC50 against hSGLT1 was 5.91 and < 6.00 and 6.17.

In data set [1] (setting [2]), `COc1ccc(Cc2cc([C@]34OC[C@](CO)(O3)[C@@H](O)[C@H](O)[C@H]4O)ccc2Cl)cc1` [Example 3A, (1S,2S,3S,4R,5S)-5-[4-chloro-3-(4-methoxy-benzyl)-phenyl]-1-hydroxymethyl-6,8-dioxa-bicyclo[3.2.1]octane-2,3,4-triol] gave an AUC(0-inf) of 1.41 µg·h/mL and a half-life of 1.58 h. In data set [1] (IV, 2 mg/kg), the CL amounted to 1.43 L/h/kg and the Vss was 1.82 L/kg. The pIC50 on human SGLT2 is 9.32 and 9.01 and 8.86 and 9.09 and 9.22 and 9.23 and 8.87. Moreover, the pIC50 on hSGLT1 is 6.27 and 6.40 and 6.26 and 6.12 and 6.28 and 6.17 and 6.42.

Take `OC[C@@]12CO[C@@](c3ccc(F)c(Cc4ccc(OC5COC5)cc4)c3)(O1)[C@H](O)[C@@H](O)[C@@H]2O` [Example 13A, (1S,2S,3S,4R,5S)-5-{4-fluoro-3-[4-(oxetan-3-yloxy)-benzyl]-phenyl}-1-hydroxymethyl-6,8-dioxa-bicyclo[3.2.1]octane-2,3,4-triol]: the negative-log IC50 (pIC50) on human SGLT2 is 7.83 and 7.75; against hSGLT1 it was less than 5.00.

As to `OC[C@@]12CO[C@@](c3ccc(Cl)c(Cc4ccc(OC5COC5)cc4)c3)(O1)[C@H](O)[C@@H](O)[C@@H]2O` [Example 14A, (1S,2S,3S,4R,5S)-5-{4-chloro-3-[4-(oxetan-3-yloxy)-benzyl]-phenyl}-1-hydroxymethyl-6,8-dioxa-bicyclo[3.2.1]octane-2,3,4-triol], in data set [1] (setting [2]), the total exposure AUC(0-inf) is 1.06 µg·h/mL, the clearance came out at 1.9 L/h/kg and the half-life is 1.36 h. In addition, the Vd in data set [1] (male, Sprague Dawley, plasma, IV, 2 mg/kg, read-out: Vss) came to 1.69 L/kg. For the same compound, in data set [1] (setting [3]), the AUC(0-inf) was 2.29 µg·h/mL, the Cmax amounted to 0.551 µg/mL and the half-life is 1.71 h. The same compound registered a F in data set [1] (PO, 10 mg/kg, PEG200/0.5% MC) of 43.5%. For the same compound, the pIC50 at human SGLT2 is 8.64 and 8.51 and 8.62 and 8.54. The compound further gave a pIC50 on hSGLT1 of less than 5.00.
